# Target: T1, acetyl CoA synthetase (Mus musculus, UniProt Q9QXG4)
# T1 construct: from tissue
# Test: not given
# Conditions: in vivo; Hall et al. 1984; cited from earlier work
# T1 sequence (Q9QXG4 whole entry): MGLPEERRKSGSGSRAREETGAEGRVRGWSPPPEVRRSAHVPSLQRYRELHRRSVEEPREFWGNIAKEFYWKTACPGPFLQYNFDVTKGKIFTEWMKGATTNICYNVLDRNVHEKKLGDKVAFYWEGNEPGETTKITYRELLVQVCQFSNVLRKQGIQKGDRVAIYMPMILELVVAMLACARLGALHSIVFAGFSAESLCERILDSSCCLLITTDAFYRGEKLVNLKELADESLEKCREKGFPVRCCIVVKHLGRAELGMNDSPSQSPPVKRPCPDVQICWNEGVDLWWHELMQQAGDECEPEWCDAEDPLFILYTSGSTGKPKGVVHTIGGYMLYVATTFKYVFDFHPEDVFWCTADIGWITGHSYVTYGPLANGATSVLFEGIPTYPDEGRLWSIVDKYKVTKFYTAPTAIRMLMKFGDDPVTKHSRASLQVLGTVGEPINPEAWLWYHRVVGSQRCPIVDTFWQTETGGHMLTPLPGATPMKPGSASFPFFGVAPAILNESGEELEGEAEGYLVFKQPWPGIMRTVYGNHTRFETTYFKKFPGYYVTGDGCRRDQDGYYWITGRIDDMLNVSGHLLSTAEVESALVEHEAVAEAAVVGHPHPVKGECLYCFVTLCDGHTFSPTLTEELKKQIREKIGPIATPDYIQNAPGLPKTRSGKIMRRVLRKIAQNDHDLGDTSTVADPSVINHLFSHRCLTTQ
row,Compound,effect on acetyl CoA synthetase
1,tetrakis-μ-(trimethylamine-borane carboxyato)-bis(trimethylamine-carboxyborane)-dicopper (II),lower

# Test system: phosphatidate phosphohydrolase
# Test: not given
# Conditions: in vivo; Hall et al. 1984; cited from earlier work
row,Compound,effect on phosphatidate phosphohydrolase
1,tetrakis-μ-(trimethylamine-borane carboxyato)-bis(trimethylamine-carboxyborane)-dicopper (II),lower

# Target: T2, ATP dependent citrate lyase (Mus musculus, UniProt Q91V92)
# T2 construct: from tissue
# T2 sequence (Q91V92 1-1091): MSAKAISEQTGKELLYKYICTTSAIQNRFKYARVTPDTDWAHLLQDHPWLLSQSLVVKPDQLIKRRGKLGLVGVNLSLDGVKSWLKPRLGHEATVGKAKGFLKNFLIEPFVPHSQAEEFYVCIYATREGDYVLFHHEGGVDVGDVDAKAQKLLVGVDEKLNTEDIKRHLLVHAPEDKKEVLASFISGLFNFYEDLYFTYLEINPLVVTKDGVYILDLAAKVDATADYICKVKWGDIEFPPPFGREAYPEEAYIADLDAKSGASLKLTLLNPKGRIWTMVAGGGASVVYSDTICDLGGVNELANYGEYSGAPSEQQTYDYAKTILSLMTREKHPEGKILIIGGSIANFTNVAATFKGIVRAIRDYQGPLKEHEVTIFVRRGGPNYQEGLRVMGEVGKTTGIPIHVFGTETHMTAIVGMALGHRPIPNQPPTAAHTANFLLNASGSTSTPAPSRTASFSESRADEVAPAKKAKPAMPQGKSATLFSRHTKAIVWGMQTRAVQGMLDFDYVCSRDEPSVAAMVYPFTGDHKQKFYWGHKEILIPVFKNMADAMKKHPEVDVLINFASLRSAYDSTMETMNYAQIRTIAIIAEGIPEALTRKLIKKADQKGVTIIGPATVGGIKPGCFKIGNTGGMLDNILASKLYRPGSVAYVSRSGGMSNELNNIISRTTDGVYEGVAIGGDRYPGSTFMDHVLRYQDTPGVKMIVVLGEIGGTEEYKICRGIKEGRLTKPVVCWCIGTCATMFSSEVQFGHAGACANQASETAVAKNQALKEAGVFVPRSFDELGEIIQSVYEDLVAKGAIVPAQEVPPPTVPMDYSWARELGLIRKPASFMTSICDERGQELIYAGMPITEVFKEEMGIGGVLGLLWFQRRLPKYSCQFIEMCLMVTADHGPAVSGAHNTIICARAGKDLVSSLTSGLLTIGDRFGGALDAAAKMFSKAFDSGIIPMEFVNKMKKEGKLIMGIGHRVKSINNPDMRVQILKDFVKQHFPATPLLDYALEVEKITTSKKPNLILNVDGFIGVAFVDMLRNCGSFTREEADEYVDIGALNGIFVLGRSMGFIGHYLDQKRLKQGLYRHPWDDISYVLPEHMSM
# Test: not given
# Conditions: in vivo; Hall et al. 1984; cited from earlier work
row,Compound,effect on ATP dependent citrate lyase
1,tetrakis-μ-(trimethylamine-borane carboxyato)-bis(trimethylamine-carboxyborane)-dicopper (II),lower

# Test system: male CF1 mice
# Test: Hypolipidemic activity in CF1 mice, intraperitoneal dosing (serum cholesterol and triglyceride)
# Assay type: in vivo
# Conditions: Mus musculus, ip, 216 h; Table I; 5 mg./kg./day i.p., male CF1 mice, day 9; read-out: Serum Cholesterol Day 9
# Protocol: For determining hypolipidemic activity, the compounds were suspended in an aqueous 1% carboxymethylcellulose solution and tested at 5 or 20 mg./kg./day administered intraperitoneally to male CF1 mice (~25 g.). On days 9 and 16 blood was collected by tail vein bleeding and the serum separated by centrifugation for three minutes. Serum cholesterol levels were determined by a modified Liebermann-Burchard reaction. Serum triglyceride levels were also determined at 16 days using a Fisher-Hycel Triglyceride Test Kit.
# The test was repeated at a dosage of 8 mg./kg./day.
# N-n-Octadecyl-N,N-dimethylamine borane was suspended in an aqueous 1% carboxymethylcellulose solution, homogenized, and administered to CF1 male mice (~25 g.) intraperitoneally for 16 days or Sprague Dawley male rats (~350 g.) orally by an intubation needle for 14 days. On days 9 and 14 or 16, blood was obtained by tail vein bleeding and the serum separated by centrifugation for 3 minutes. The serum cholesterol levels were determined by a modification of the Liebermann-Burchard reaction. Serum was also collected on day 14 or 16 and the triglyceride content was determined by a Fisher-Hycel Triglyceride Test Kit.
row,Compound,response vs control in vivo at 5 mg/kg [%]
1,"[BH3-][N+](C)(C)CCCCCCCCCCC [IV, N--undecyl-N,N--dimethylamine borane]",68

# Same assay, conditions: Mus musculus, ip, 216 h; Table I; 20 mg./kg./day i.p., male CF1 mice, day 9; read-out: Serum Cholesterol Day 9
row,Compound,response vs control in vivo at 20 mg/kg [%]
1,"[BH3-][N+](C)(C)CCCCCCCCCCCCCC [VII, N--tetradecyl-N,N--dimethylamine borane]",79
2,"[BH3-][N+](C)(C)CCCCCCCCCCCCCCC [VI, N--pentadecyl-N,N--dimethylamine borane]",86
3,"[BH3-][N+](C)(C)Cc1ccccc1 [XIII, N--benzyl-N,N--dimethylamine borane]",95
4,"[BH3-][N+](C)(C)CCCCCCCCCC [XII, N--decyl-N,N--dimethylamine borane]",51

# Same assay, conditions: Mus musculus, ip, 216 h; Table II; 8 mg./kg./day i.p., male CF1 mice, day 9; read-out: Serum Cholesterol Day 9
row,Compound,response vs control in vivo at 8 mg/kg [%]
1,"[BH3-][N+](C)(C)CCCCCCCCCCCCCC [VII, N--tetradecyl-N,N--dimethylamine borane]",80
2,"[BH3-][N+](C)(C)CCCCCCCCCCCCCCC [VI, N--pentadecyl-N,N--dimethylamine borane]",81
3,"[BH3-][N+](C)(C)Cc1ccccc1 [XIII, N--benzyl-N,N--dimethylamine borane]",73
4,"[BH3-][N+](C)(C)CCCCCCCCCC [XII, N--decyl-N,N--dimethylamine borane]",77
5,"[BH3-][N+](C)(C)CCCCCCCCCCC [IV, N--undecyl-N,N--dimethylamine borane]",82

# Same assay, conditions: Mus musculus, ip, 384 h; Table I; 5 mg./kg./day i.p., male CF1 mice, day 16; read-out: Serum Cholesterol Day 16
row,Compound,response vs control in vivo at 5 mg/kg [%]
1,"[BH3-][N+](C)(C)CCCCCCCCCCC [IV, N--undecyl-N,N--dimethylamine borane]",63

# Same assay, conditions: Mus musculus, ip, 384 h; Table I; 5 mg./kg./day i.p., male CF1 mice, day 16; read-out: Serum Triglyceride Day 16
row,Compound,response vs control in vivo at 5 mg/kg [%]
1,"[BH3-][N+](C)(C)CCCCCCCCCCC [IV, N--undecyl-N,N--dimethylamine borane]",82

# Same assay, conditions: Mus musculus, ip, 384 h; Table I; 20 mg./kg./day i.p., male CF1 mice, day 16; read-out: Serum Cholesterol Day 16
row,Compound,response vs control in vivo at 20 mg/kg [%]
1,"[BH3-][N+](C)(C)CCCCCCCCCCCCCC [VII, N--tetradecyl-N,N--dimethylamine borane]",60
2,"[BH3-][N+](C)(C)CCCCCCCCCCCCCCC [VI, N--pentadecyl-N,N--dimethylamine borane]",64
3,"[BH3-][N+](C)(C)Cc1ccccc1 [XIII, N--benzyl-N,N--dimethylamine borane]",71
4,"[BH3-][N+](C)(C)CCCCCCCCCC [XII, N--decyl-N,N--dimethylamine borane]",46

# Same assay, conditions: Mus musculus, ip, 384 h; Table I; 20 mg./kg./day i.p., male CF1 mice, day 16; read-out: Serum Triglyceride Day 16
row,Compound,response vs control in vivo at 20 mg/kg [%]
1,"[BH3-][N+](C)(C)CCCCCCCCCCCCCC [VII, N--tetradecyl-N,N--dimethylamine borane]",102
2,"[BH3-][N+](C)(C)CCCCCCCCCCCCCCC [VI, N--pentadecyl-N,N--dimethylamine borane]",70
3,"[BH3-][N+](C)(C)Cc1ccccc1 [XIII, N--benzyl-N,N--dimethylamine borane]",60
4,"[BH3-][N+](C)(C)CCCCCCCCCC [XII, N--decyl-N,N--dimethylamine borane]",76

# Same assay, conditions: Mus musculus, ip, 384 h; Table II; 8 mg./kg./day i.p., male CF1 mice, day 16; read-out: Serum Cholesterol Day 16
row,Compound,response vs control in vivo at 8 mg/kg [%]
1,"[BH3-][N+](C)(C)CCCCCCCCCCCCCC [VII, N--tetradecyl-N,N--dimethylamine borane]",67
2,"[BH3-][N+](C)(C)CCCCCCCCCCCCCCC [VI, N--pentadecyl-N,N--dimethylamine borane]",66
3,"[BH3-][N+](C)(C)Cc1ccccc1 [XIII, N--benzyl-N,N--dimethylamine borane]",65
4,"[BH3-][N+](C)(C)CCCCCCCCCC [XII, N--decyl-N,N--dimethylamine borane]",77
5,"[BH3-][N+](C)(C)CCCCCCCCCCC [IV, N--undecyl-N,N--dimethylamine borane]",68

# Same assay, conditions: Mus musculus, ip, 384 h; Table II; 8 mg./kg./day i.p., male CF1 mice, day 16; read-out: Serum Triglyceride Day 16
row,Compound,response vs control in vivo at 8 mg/kg [%]
1,"[BH3-][N+](C)(C)CCCCCCCCCCCCCC [VII, N--tetradecyl-N,N--dimethylamine borane]",80
2,"[BH3-][N+](C)(C)CCCCCCCCCCCCCCC [VI, N--pentadecyl-N,N--dimethylamine borane]",77
3,"[BH3-][N+](C)(C)Cc1ccccc1 [XIII, N--benzyl-N,N--dimethylamine borane]",53
4,"[BH3-][N+](C)(C)CCCCCCCCCC [XII, N--decyl-N,N--dimethylamine borane]",79
5,"[BH3-][N+](C)(C)CCCCCCCCCCC [IV, N--undecyl-N,N--dimethylamine borane]",75

# Test system: mice
# Test: not given
# Conditions: 2.5 mg/kg in mice; Hall et al., J. Pharm. Sci. 73, 973-977 (1984); cited from earlier work
row,Compound,hypolipidemic activity
1,tetrakis-μ-(trimethylamine-borane carboxyato)-bis(trimethylamine-carboxyborane)-dicopper (II),potent hypolipidemic agent

# Same assay, conditions: Hall et al. 1984; cited from earlier work
row,Compound,cholesterol excretion from the body
1,tetrakis-μ-(trimethylamine-borane carboxyato)-bis(trimethylamine-carboxyborane)-dicopper (II),accelerate cholesterol excretion

# — patent US4740504A, “Antihyperlipidemic amine boranes” (United States Borax & Chemical Corp., priority 1987, dated 1988)
